Starred links: 1 amine or outer side, 2 acyl side, 3 side chain; linkers in the order of their positions; H or OH if unused. Positions of bridges follow the written chain, without caps; N, C: chain ends. Non-standard residues stand in square brackets, D forms with d. Residues, ends and D or L forms follow the SMILES beside them. *: point of attachment. hPhe(3-Cl-4-CF3) = N[C@@H](CCc1ccc(C(F)(F)F)c(Cl)c1)C(=O)O; NMePhe(4-Me) = CN[C@@H](Cc1ccc(C)cc1)C(=O)O; NMedβ3hAla = C[C@H](CC(=O)[*:2])N(C)[*:1]; NMeGly(cPent) = CN[C@H](C(=O)O)C1CCCC1; Gly(cPent) = N[C@H](C(=O)O)C1CCCC1; NMeCha = CN[C@@H](CC1CCCCC1)C(=O)O; NMeGly(cPr) = CN[C@H](C(=O)O)C1CC1; NMeCba = CN[C@@H](CC1CCC1)C(=O)O; NMeChg = CN[C@H](C(=O)O)C1CCCCC1; NMeI = CC[C@H](C)[C@H](NC)C(=O)O; NMeD = CN[C@@H](CC(=O)O)C(=O)O; NMeL = CN[C@@H](CC(C)C)C(=O)O; NMeV = CN[C@H](C(=O)O)C(C)C; d(β3hA) = C[C@@H](N)CC(=O)O; NMeAbu = CC[C@H](NC)C(=O)O; NMeS = CN[C@@H](CO)C(=O)O; NMeA = CN[C@@H](C)C(=O)O; Piperidide = C1CCN(*)CC1; Pyrrolidide = C1CCN(*)C1; dNMeA = CN[C@H](C)C(=O)O; Ac5c = NC1(C(=O)O)CCCC1; Aze = O=C(O)[C@@H]1CCN1; Ac4c = NC1(C(=O)O)CCC1; Cyclopropyl = C1CC1*; Sar = CNCC(=O)O

For assay [1], the target named is T1, Kras and SOS1 (biotin-tagged human Kras loaded with GDP, His-tagged human SOS1) (Homo sapiens, UniProt P01116, G12D).
T1 construct: made in house; host or cells: E. coli (stated for Kras only)
T1 sequence (P01116 1-188 isoform P01116-2 G12D): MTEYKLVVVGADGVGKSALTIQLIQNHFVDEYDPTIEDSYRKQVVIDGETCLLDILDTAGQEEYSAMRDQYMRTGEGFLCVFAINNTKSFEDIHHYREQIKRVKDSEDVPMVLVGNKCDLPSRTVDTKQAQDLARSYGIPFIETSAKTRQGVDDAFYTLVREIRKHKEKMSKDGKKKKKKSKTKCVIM
In words: Protein-protein interaction inhibition between Kras and SOS1 (KrasGl2D-SOS PPI) using AlphaScreen. Format: binding. The following applies: AlphaScreen; biotin-tagged human Kras loaded with GDP, His-tagged human SOS1; read-out: KRAS G12D-SOS PPI IC50. The method, boiled down:
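Donor beads (nickel) hold His-SOS1; acceptor beads (streptavidin) hold biotin-Kras bound to GDP. Signal measured at 520-620 nm following 680 nm excitation.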
A general note: Bead proximity is the source of the signal in Alpha formats.

For assay [2], the system named is Human pancreatic cancer cell line AsPC-1. In words: Measurement of AsPC-1 cell growth inhibition (AsPC-1 CGI). Format: cell-based. The following applies: 96 h. The method, boiled down: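 AsPC-1 cells in 15% FBS RPMI-1640 were exposed to test compound for 96 hours at 37° C, with CellTiter-Glo as endpoint.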

On to `CC(C)C[C@H]1C(=O)N[C@@H](COC2CC2)C(=O)N(C)CC(=O)N(C)CC(=O)N(C)[C@@H](CC2CCCCC2)C(=O)N(C)CC(=O)N[C@@H](CCc2ccc(C(F)(F)F)c(Cl)c2)C(=O)N2CCC[C@H]2C(=O)NC2(CCCC2)C(=O)N(C)[C@@H](C2CCCCC2)C(=O)N(C)[C@H](C(=O)N2CCCCC2)CC(=O)N1C` [Compound 1766] ([NMeL]S(Cyclopropyl)[Sar][Sar][NMeCha][Sar][hPhe(3-Cl-4-CF3)]P[Ac5c][NMeChg][NMeD]-Piperidide; lactam N-11), for which the values for the IC50 in assay [1] and in assay [2] were 3.6 nM and 100 to 500 nM, respectively.
The matching figures for `CC[C@H](C)[C@@H]1NC(=O)[C@H](CC)N(C)C(=O)C[C@@H](C(=O)N2CCCCC2)N(C)C(=O)[C@H](C2CCCCC2)N(C)C(=O)C2(CCCC2)NC(=O)[C@@H]2CCCN2C(=O)[C@H](CCc2ccc(C(F)(F)F)c(Cl)c2)NC(=O)CN(C)C(=O)[C@H](CC2CCCCC2)N(C)C(=O)CN(C)C(=O)CN(C)C1=O` [Compound 1770] ([NMeAbu]I[Sar][Sar][NMeCha][Sar][hPhe(3-Cl-4-CF3)]P[Ac5c][NMeChg][NMeD]-Piperidide; lactam N-11): 0.71 nM and 50 to 100 nM.
Turning to `CC[C@H](C)[C@@H]1NC(=O)[C@H](CC(C)C)N(C)C(=O)C[C@@H](C)NC(=O)[C@H]([C@@H](C)CC)N(C)C(=O)C2(CCCC2)NC(=O)[C@@H]2CCCN2C(=O)[C@H](CCc2ccc(C(F)(F)F)c(Cl)c2)NC(=O)CN(C)C(=O)[C@H](Cc2ccc(C)cc2)N(C)C(=O)CN(C)C(=O)CN(C)C1=O` [Compound 1774] (cyclo([Ac5c][NMeI][d(β3hA)][NMeL]I[Sar][Sar][NMePhe(4-Me)][Sar][hPhe(3-Cl-4-CF3)]P)), the figures for the IC50 in assay [1] and in assay [2] were 0.84 nM and 100 to 500 nM, respectively.
With `CC[C@H](C)[C@@H]1NC(=O)[C@H](C)N(C)C(=O)C[C@@H](C)N(C)C(=O)[C@H](C(C)C)N(C)C(=O)C2(CCCC2)NC(=O)[C@@H]2CCCN2C(=O)[C@H](CCc2ccc(C(F)(F)F)c(Cl)c2)NC(=O)[C@@H](C)N(C)C(=O)[C@H](CC2CCCCC2)N(C)C(=O)[C@@H]2CCCN2C(=O)CN(C)C1=O` [Compound 1784] (cyclo([Ac5c][NMeV][NMedβ3hAla][NMeA]I[Sar]P[NMeCha][dNMeA][hPhe(3-Cl-4-CF3)]P)), the IC50 in assay [1] is 11 nM; in assay [2], 50 to 100 nM.
Turning to `CC[C@H](C)[C@@H]1NC(=O)[C@H](COC2CC2)N(C)C(=O)C[C@@H](C(=O)N2CCCCC2)N(C)C(=O)[C@H](C2CCCCC2)N(C)C(=O)C2(CCCC2)NC(=O)[C@@H]2CCCN2C(=O)[C@H](CCc2ccc(C(F)(F)F)c(Cl)c2)NC(=O)CN(C)C(=O)[C@H](CC2CCCCC2)N(C)C(=O)CN(C)C(=O)CN(C)C1=O` [Compound 1786] ([NMeS](Cyclopropyl)I[Sar][Sar][NMeCha][Sar][hPhe(3-Cl-4-CF3)]P[Ac5c][NMeChg][NMeD]-Piperidide; lactam N-11), the figures for the concentration for half-maximal inhibition (IC50) in assay [1] and in assay [2] were 0.72 nM and 50 to 100 nM, respectively.
On the same counts, the results for `CC[C@H](C)[C@@H]1NC(=O)[C@H](CC(C)C)N(C)C(=O)C[C@@H](C(=O)N2CCCC2)N(C)C(=O)[C@H]([C@@H](C)CC)N(C)C(=O)C2(CCCC2)NC(=O)[C@@H]2CCCN2C(=O)[C@H](CCc2ccc(C(F)(F)F)c(Cl)c2)NC(=O)CN(C)C(=O)[C@H](Cc2ccc(C)cc2)N(C)C(=O)CN(C)C(=O)CN(C)C1=O` [Compound 1790] ([NMeL]I[Sar][Sar][NMePhe(4-Me)][Sar][hPhe(3-Cl-4-CF3)]P[Ac5c][NMeI][NMeD]-Pyrrolidide; lactam N-11) are 0.7 nM and 20 to 50 nM.
Consider `CC[C@H](C)[C@@H]1NC(=O)[C@H](C2CC2)N(C)C(=O)C[C@@H](C(=O)N2CCCCC2)N(C)C(=O)[C@H](C2CCCCC2)N(C)C(=O)C2(CCCC2)NC(=O)[C@@H]2CCCN2C(=O)[C@H](CCc2ccc(C(F)(F)F)c(Cl)c2)NC(=O)CN(C)C(=O)[C@H](CC2CCCCC2)N(C)C(=O)CN(C)C(=O)CN(C)C1=O` [Compound 1796] ([NMeGly(cPr)]I[Sar][Sar][NMeCha][Sar][hPhe(3-Cl-4-CF3)]P[Ac5c][NMeChg][NMeD]-Piperidide; lactam N-11), for which the half-maximal inhibitory concentration (IC50) is 0.76 nM in assay [1] and 100 to 500 nM in assay [2].
Take `CC(C)C[C@H]1C(=O)N[C@@H](C(C)C)C(=O)N(C)CC(=O)N(C)CC(=O)N(C)[C@@H](CC2CCCCC2)C(=O)N(C)CC(=O)N[C@@H](CCc2ccc(C(F)(F)F)c(Cl)c2)C(=O)N2CCC[C@H]2C(=O)NC2(CCCC2)C(=O)N(C)[C@@H](C2CCCCC2)C(=O)N(C)[C@H](C(=O)N2CCCCC2)CC(=O)N1C` [Compound 1798] ([NMeL]V[Sar][Sar][NMeCha][Sar][hPhe(3-Cl-4-CF3)]P[Ac5c][NMeChg][NMeD]-Piperidide; lactam N-11): the IC50 was 1 nM in assay [1] and 50 to 100 nM in assay [2].
Consider `CC[C@H](C)[C@@H]1NC(=O)[C@H](CC(C)C)N(C)C(=O)C[C@@H](C(=O)N2CCCCC2)N(C)C(=O)[C@H](C(C)C)N(C)C(=O)C2(CCCC2)NC(=O)[C@@H]2CCCN2C(=O)[C@H](CCc2ccc(C(F)(F)F)c(Cl)c2)NC(=O)CN(C)C(=O)[C@H](CC(C)C)N(C)C(=O)[C@@H]2CCN2C(=O)[C@H](C)N(C)C1=O` [Compound 1803] ([NMeL]I[NMeA][Aze][NMeL][Sar][hPhe(3-Cl-4-CF3)]P[Ac5c][NMeV][NMeD]-Piperidide; lactam N-11), for which the IC50 in assay [1] is 5.3 nM; in assay [2], 100 to 500 nM.
On the same counts, the results for `CC[C@H](C)[C@@H]1NC(=O)[C@H](CC(C)C)N(C)C(=O)C[C@@H](C(=O)N2CCCCC2)N(C)C(=O)[C@H](C2CCCCC2)N(C)C(=O)C2(CCCC2)NC(=O)[C@@H]2CCCN2C(=O)[C@H](CCc2ccc(C(F)(F)F)c(Cl)c2)NC(=O)CN(C)C(=O)[C@H](Cc2ccc(C)cc2)N(C)C(=O)CN(C)C(=O)CN(C)C1=O` [Compound 1804] ([NMeL]I[Sar][Sar][NMePhe(4-Me)][Sar][hPhe(3-Cl-4-CF3)]P[Ac5c][NMeChg][NMeD]-Piperidide; lactam N-11) are 0.51 nM and 50 to 100 nM.
Regarding `CC[C@H](C)[C@@H]1NC(=O)[C@H](C(C)C)N(C)C(=O)C[C@@H](C(=O)N2CCCCC2)N(C)C(=O)[C@H](C2CCCCC2)N(C)C(=O)C2(CCCC2)NC(=O)[C@@H]2CCCN2C(=O)[C@H](CCc2ccc(C(F)(F)F)c(Cl)c2)NC(=O)CN(C)C(=O)[C@H](CC2CCCCC2)N(C)C(=O)CN(C)C(=O)CN(C)C1=O` [Compound 1807] ([NMeV]I[Sar][Sar][NMeCha][Sar][hPhe(3-Cl-4-CF3)]P[Ac5c][NMeChg][NMeD]-Piperidide; lactam N-11), the 50% inhibitory concentration (IC50) in assay [1] was 0.89 nM; in assay [2] it was 50 to 100 nM.
Regarding `CC[C@H](C)[C@@H]1NC(=O)[C@H](CC(C)C)N(C)C(=O)C[C@@H](C(=O)N(C)C)N(C)C(=O)[C@H](C(C)C)N(C)C(=O)C2(CCCC2)NC(=O)[C@@H]2CCCN2C(=O)[C@H](CCc2ccc(C(F)(F)F)c(Cl)c2)NC(=O)CN(C)C(=O)[C@H](CC2CCCCC2)N(C)C(=O)CN(C)C(=O)CN(C)C1=O` [Compound 1812] ([NMeL]I[Sar][Sar][NMeCha][Sar][hPhe(3-Cl-4-CF3)]P[Ac5c][NMeV][NMeD]-NMe2; lactam N-11), the 50% inhibitory concentration (IC50) in assay [1] is 0.56 nM; in assay [2], 50 to 100 nM.
The matching figures for `CC[C@H](C)[C@@H]1NC(=O)[C@H](CC(C)C)N(C)C(=O)C[C@@H](C(=O)N2CCCCC2)N(C)C(=O)[C@H](C2CCCCC2)N(C)C(=O)C2(CCCC2)NC(=O)[C@@H]2CCCN2C(=O)[C@H](CCc2ccc(C(F)(F)F)c(Cl)c2)NC(=O)CN(C)C(=O)[C@H](CC2CCC2)N(C)C(=O)CN(C)C(=O)CN(C)C1=O` [Compound 1817] ([NMeL]I[Sar][Sar][NMeCba][Sar][hPhe(3-Cl-4-CF3)]P[Ac5c][NMeChg][NMeD]-Piperidide; lactam N-11): 1.4 nM and 100 to 500 nM.
`CC[C@H](C)[C@@H]1NC(=O)[C@H](CC(C)C)N(C)C(=O)C[C@@H](C(=O)N2CCCCC2)N(C)C(=O)[C@H](C2CCCCC2)N(C)C(=O)C2(CCC2)NC(=O)[C@@H]2CCCN2C(=O)[C@H](CCc2ccc(C(F)(F)F)c(Cl)c2)NC(=O)CN(C)C(=O)[C@H](CC2CCCCC2)N(C)C(=O)CN(C)C(=O)CN(C)C1=O` [Compound 1821] ([NMeL]I[Sar][Sar][NMeCha][Sar][hPhe(3-Cl-4-CF3)]P[Ac4c][NMeChg][NMeD]-Piperidide; lactam N-11): the IC50 in assay [1] was 0.99 nM; in assay [2] it was 20 to 50 nM.
Take `CC(C)C[C@H]1C(=O)N[C@@H](C2CCCC2)C(=O)N(C)CC(=O)N(C)CC(=O)N(C)[C@@H](CC2CCCCC2)C(=O)N(C)CC(=O)N[C@@H](CCc2ccc(C(F)(F)F)c(Cl)c2)C(=O)N2CCC[C@H]2C(=O)NC2(CCCC2)C(=O)N(C)[C@@H](C2CCCCC2)C(=O)N(C)[C@H](C(=O)N2CCCCC2)CC(=O)N1C` [Compound 1824] ([NMeL][Gly(cPent)][Sar][Sar][NMeCha][Sar][hPhe(3-Cl-4-CF3)]P[Ac5c][NMeChg][NMeD]-Piperidide; lactam N-11): the IC50 in assay [1] was 0.75 nM; in assay [2] it was 50 to 100 nM.
On the same counts, the results for `CC[C@H](C)[C@@H]1NC(=O)[C@H](CC(C)C)N(C)C(=O)C[C@@H](C(=O)N2CCCCC2)N(C)C(=O)[C@H](C(C)C)N(C)C(=O)C2(CCCC2)NC(=O)[C@@H]2CCCN2C(=O)[C@H](CCc2ccc(C(F)(F)F)c(Cl)c2)NC(=O)CN(C)C(=O)[C@H](C2CCCC2)N(C)C(=O)[C@@H]2CCN2C(=O)[C@H](C)N(C)C1=O` [Compound 1825] ([NMeL]I[NMeA][Aze][NMeGly(cPent)][Sar][hPhe(3-Cl-4-CF3)]P[Ac5c][NMeV][NMeD]-Piperidide; lactam N-11) are 3.4 nM and 100 to 500 nM.

A word on the IC50: it is the midpoint of a concentration-inhibition curve.
